Data from PubChem BioAssay AID1259407 (Chemical Carcinogenesis Research Information System (CCRIS), 2018).
Activity calls are given as the source filed them. The rule behind the calls is not given here.

System: CCRIS mutagenicity, Ames/micronucleus/aberration tests
Experiment: CCRIS mutagenicity studies

Measured: mutagenic call

Nc1ccc(N)cc1
inactive: Test System: AMES SALMONELLA TYPHIMURIUM, Strain/Indicator: TA98(NR), Metabolic Activation: NONE, Method: PREINCUBATION inactive; negative | Test System: AMES SALMONELLA TYPHIMURIUM, Strain/Indicator: TA98, Metabolic Activation: NONE inactive; negative | Test System: AMES SALMONELLA TYPHIMURIUM, Strain/Indicator: TA98, Metabolic Activation: NONE, Method: PREINCUBATION inactive; negative | Test System: AMES SALMONELLA TYPHIMURIUM, Strain/Indicator: TA98, Metabolic Activation: NONE, Method: STANDARD PLATE inactive; negative | Test System: AMES SALMONELLA TYPHIMURIUM, Strain/Indicator: TA98, Metabolic Activation: PEA APICAL BUD S-9, Method: PREINCUBATION inactive; negative | Test System: AMES SALMONELLA TYPHIMURIUM, Strain/Indicator: TA98, Metabolic Activation: PEA APICAL BUD S-9, Method: STANDARD PLATE inactive; negative | Test System: AMES SALMONELLA TYPHIMURIUM, Strain/Indicator: TA98, Metabolic Activation: PLANT (PERSEA AMERICANA) S-117, Method: STANDARD PLATE inactive; negative | Test System: AMES SALMONELLA TYPHIMURIUM, Strain/Indicator: TA98, Metabolic Activation: PLANT (ZEA MAYS) S-9, Method: STANDARD PLATE inactive; negative | Test System: AMES SALMONELLA TYPHIMURIUM, Strain/Indicator: TA100(NR), Metabolic Activation: RAT, LIVER, S-9, AROCLOR 1254, Method: PREINCUBATION inactive; negative | Test System: AMES SALMONELLA TYPHIMURIUM, Strain/Indicator: TA100, Metabolic Activation: HAMSTER, LIVER, S-9, AROCLOR 1254 (30%), Method: PREINCUBATION inactive; negative | Test System: AMES SALMONELLA TYPHIMURIUM, Strain/Indicator: TA100, Metabolic Activation: NONE, Method: PREINCUBATION inactive; negative | Test System: AMES SALMONELLA TYPHIMURIUM, Strain/Indicator: TA100, Metabolic Activation: NONE, Method: STANDARD PLATE inactive; negative | Test System: AMES SALMONELLA TYPHIMURIUM, Strain/Indicator: TA100, Metabolic Activation: PEA APICAL BUD S-9, Method: PREINCUBATION inactive; negative | Test System: AMES SALMONELLA TYPHIMURIUM, Strain/Indicator: TA100, Metabolic Activation: PEA APICAL BUD S-9, Method: STANDARD PLATE inactive; negative | Test System: AMES SALMONELLA TYPHIMURIUM, Strain/Indicator: TA100, Metabolic Activation: PLANT (PERSEA AMERICANA) S-117, Method: STANDARD PLATE inactive; negative | Test System: AMES SALMONELLA TYPHIMURIUM, Strain/Indicator: TA100, Metabolic Activation: PLANT (ZEA MAYS) S-9, Method: STANDARD PLATE inactive; negative | Test System: AMES SALMONELLA TYPHIMURIUM, Strain/Indicator: TA100, Metabolic Activation: RAT LIVER S-9, PHENOBARBITAL AND BETA-NAPHTHOFLAVONE, Method: PREINCUBATION inactive; negative | Test System: AMES SALMONELLA TYPHIMURIUM, Strain/Indicator: TA100, Metabolic Activation: RAT, LIVER, S-9, AROCLOR 1254 (30%), Method: PREINCUBATION inactive; negative | Test System: AMES SALMONELLA TYPHIMURIUM, Strain/Indicator: TA100, Metabolic Activation: RAT, LIVER, S-9, AROCLOR 1254, Method: PREINCUBATION inactive; negative | Test System: AMES SALMONELLA TYPHIMURIUM, Strain/Indicator: TA100, Metabolic Activation: RAT, LIVER, S-9, AROCLOR 1254, Method: STANDARD PLATE inactive; negative | Test System: AMES SALMONELLA TYPHIMURIUM, Strain/Indicator: TA102, Metabolic Activation: NONE, Method: STANDARD PLATE inactive; negative | Test System: AMES SALMONELLA TYPHIMURIUM, Strain/Indicator: TA1535, Metabolic Activation: NONE, Method: PREINCUBATION inactive; negative | Test System: AMES SALMONELLA TYPHIMURIUM, Strain/Indicator: TA1535, Metabolic Activation: RAT LIVER S-9, PHENOBARBITAL AND BETA-NAPHTHOFLAVONE, Method: PREINCUBATION inactive; negative | Test System: AMES SALMONELLA TYPHIMURIUM, Strain/Indicator: TA1537, Metabolic Activation: NONE, Method: PREINCUBATION inactive; negative | Test System: AMES SALMONELLA TYPHIMURIUM, Strain/Indicator: TA1537, Metabolic Activation: RAT LIVER S-9, PHENOBARBITAL AND BETA-NAPHTHOFLAVONE, Method: PREINCUBATION inactive; negative | Test System: AMES SALMONELLA TYPHIMURIUM, Strain/Indicator: TA2638, Metabolic Activation: NONE, Method: STANDARD PLATE inactive; negative | Test System: AMES SALMONELLA TYPHIMURIUM, Strain/Indicator: YG1024, Metabolic Activation: PLANT (PERSEA AMERICANA) S-117, Method: STANDARD PLATE inactive; negative | Test System: AMES SALMONELLA TYPHIMURIUM, Strain/Indicator: YG1024, Metabolic Activation: PLANT (ZEA MAYS) S-9, Method: STANDARD PLATE inactive; negative | Test System: AMES SALMONELLA TYPHIMURIUM, Strain/Indicator: YG1029, Metabolic Activation: PLANT (PERSEA AMERICANA) S-117, Method: STANDARD PLATE inactive; negative | Test System: AMES SALMONELLA TYPHIMURIUM, Strain/Indicator: YG1029, Metabolic Activation: PLANT (ZEA MAYS) S-9, Method: STANDARD PLATE inactive; negative | Test System: Ames Salmonella typhimurium, Strain/Indicator: TA98, Metabolic Activation: None, Method: Standard plate inactive; negative | Test System: Ames Salmonella typhimurium, Strain/Indicator: TA100, Metabolic Activation: None, Method: Preincubation inactive; negative | Test System: Ames Salmonella typhimurium, Strain/Indicator: TA100, Metabolic Activation: None, Method: Standard plate inactive; negative | Test System: Ames Salmonella typhimurium, Strain/Indicator: TA100, Metabolic Activation: Rat, Liver, S-9, Aroclor 1254 (10%), Method: Preincubation inactive; negative | Test System: Ames Salmonella typhimurium, Strain/Indicator: TA100, Metabolic Activation: Rat, Liver, S-9, Aroclor 1254 (10%), Method: Standard plate inactive; negative | Test System: Ames Salmonella typhimurium, Strain/Indicator: TA102, Metabolic Activation: None, Method: Preincubation inactive; negative | Test System: Ames Salmonella typhimurium, Strain/Indicator: TA102, Metabolic Activation: None, Method: Standard plate inactive; negative | Test System: Ames Salmonella typhimurium, Strain/Indicator: TA102, Metabolic Activation: Rat, Liver, S9, Aroclor 1254, Method: Preincubation inactive; negative | Test System: Ames Salmonella typhimurium, Strain/Indicator: TA102, Metabolic Activation: Rat, Liver, S-9, Aroclor 1254 (10%), Method: Preincubation inactive; negative | Test System: Ames Salmonella typhimurium, Strain/Indicator: TA102, Metabolic Activation: Rat, Liver, S-9, Aroclor 1254 (10%), Method: Standard plate inactive; negative | Test System: Ames Salmonella typhimurium, Strain/Indicator: TA104, Metabolic Activation: None, Method: Preincubation inactive; negative | Test System: Ames Salmonella typhimurium, Strain/Indicator: TA104, Metabolic Activation: Rat, Liver, S9, Aroclor 1254, Method: Preincubation inactive; negative | Test System: Ames Salmonella typhimurium, Strain/Indicator: TA1535, Metabolic Activation: None, Method: Preincubation inactive; negative | Test System: Ames Salmonella typhimurium, Strain/Indicator: TA1535, Metabolic Activation: None, Method: Standard plate inactive; negative | Test System: Ames Salmonella typhimurium, Strain/Indicator: TA1535, Metabolic Activation: Rat, Liver, S-9, Aroclor 1254 (10%), Method: Preincubation inactive; negative | Test System: Ames Salmonella typhimurium, Strain/Indicator: TA1535, Metabolic Activation: Rat, Liver, S-9, Aroclor 1254 (10%), Method: Standard plate inactive; negative | Test System: Ames Salmonella typhimurium, Strain/Indicator: TA1537, Metabolic Activation: None, Method: Preincubation inactive; negative | Test System: Ames Salmonella typhimurium, Strain/Indicator: TA 1537, Metabolic Activation: None, Method: Standard plate inactive; negative | Test System: Ames Salmonella typhimurium, Strain/Indicator: TA1537, Metabolic Activation: Rat, Liver, S-9, Aroclor 1254 (10%), Method: Preincubation inactive; negative | Test System: Ames Salmonella typhimurium, Strain/Indicator: TA1537, Metabolic Activation: Rat, Liver, S-9, Aroclor 1254 (10%), Method: Standard plate inactive; negative | Test System: CHINESE HAMSTER OVARY, Strain/Indicator: CHO-K1-BH4 (HGPRT)/6-THIOGUANINE, Metabolic Activation: NONE inactive; negative | Test System: CHINESE HAMSTER OVARY, Strain/Indicator: CHO-K1-BH4 (HGPRT)/6-THIOGUANINE, Metabolic Activation: S-9 inactive; negative | Test System: E. COLI, Strain/Indicator: WP2 (PKM101), Metabolic Activation: NONE, Method: STANDARD PLATE inactive; negative | Test System: E. COLI, Strain/Indicator: WP2 UVRA (PKM101), Metabolic Activation: NONE, Method: STANDARD PLATE inactive; negative | Test System: E.COLI, Strain/Indicator: WP2UVRA, Metabolic Activation: RAT LIVER S-9, PHENOBARBITAL AND BETA-NAPHTHOFLAVONE, Method: PREINCUBATION inactive; negative | Test System: Mouse lymphoma, Strain/Indicator: L5178Y (TK+/TK-), Metabolic Activation: None, Method: Suspension/plate inactive; negative | Test System: Mouse lymphoma, Strain/Indicator: L5178Y (TK+/TK-), Metabolic Activation: Rat, Liver, S-9, Aroclor 1254, Method: Suspension/plate inactive; negative
active: End Point: IN VITRO CHROMOSOMAL ABERRATIONS, Test System: CHL CELLS, Metabolic Activation: NONE active; positive (structural changes) | End Point: IN VITRO CHROMOSOMAL ABERRATIONS, Test System: CHL CELLS, Metabolic Activation: RAT, LIVER, S-9, SODIUM PHENOBARBITAL AND 5,6-BENZOFLAVONE active; positive (structural changes) | End Point: IN VITRO MICRONUCLEUS, Test System: CHL/IU CELLS, Metabolic Activation: RAT, LIVER, S-9, PHENOBARBITAL AND 5,6-BENZOFLAVONE active; positive | End Point: In vitro micronucleus, Test System: Human lymphocytes, Metabolic Activation: Rat, Liver, S-9, Aroclor 1254 active; positive | Test System: AMES SALMONELLA TYPHIMURIUM, Strain/Indicator: TA98(NR), Metabolic Activation: RAT, LIVER, S-9, AROCLOR 1254, Method: PREINCUBATION active; positive | Test System: AMES SALMONELLA TYPHIMURIUM, Strain/Indicator: TA98, Metabolic Activation: HAMSTER, LIVER, S-9, AROCLOR 1254 (30%), Method: PREINCUBATION active; positive | Test System: AMES SALMONELLA TYPHIMURIUM, Strain/Indicator: TA98, Metabolic Activation: RAT LIVER S-9, PHENOBARBITAL AND BETA-NAPHTHOFLAVONE, Method: PREINCUBATION active; positive | Test System: AMES SALMONELLA TYPHIMURIUM, Strain/Indicator: TA98, Metabolic Activation: RAT, LIVER, S-9, AROCLOR 1254 active; positive | Test System: AMES SALMONELLA TYPHIMURIUM, Strain/Indicator: TA98, Metabolic Activation: RAT, LIVER, S-9, AROCLOR 1254 (30%), Method: PREINCUBATION active; positive | Test System: AMES SALMONELLA TYPHIMURIUM, Strain/Indicator: TA100(NR), Metabolic Activation: NONE, Method: PREINCUBATION active; positive | Test System: AMES SALMONELLA TYPHIMURIUM, Strain/Indicator: TA1538, Metabolic Activation: RAT, LIVER, S-9, PHENOBARBITAL, Method: STANDARD PLATE active; positive | Test System: Ames Salmonella typhimurium, Strain/Indicator: TA98, Metabolic Activation: Rat, Liver, S-9, Aroclor 1254 (10%), Method: Preincubation active; positive | Test System: Ames Salmonella typhimurium, Strain/Indicator: TA98, Metabolic Activation: Rat, Liver, S-9, Aroclor 1254 (10%), Method: Standard plate active; positive | Test System: MOUSE LYMPHOMA, Strain/Indicator: L5178Y (TK+/TK-), Metabolic Activation: NONE, Method: SUSPENSION/PLATE active; positive | Test System: MOUSE LYMPHOMA, Strain/Indicator: L5178Y (TK+/TK-), Metabolic Activation: RAT, LIVER, S-9, AROCLOR 1254, Method: SUSPENSION/PLATE active; positive
